Measurements reported in EP3419977B1, “PLATINUM(II) RING-FUSED CHLORINS, METHODS AND USES THEREOF” (Universidade de Coimbra, priority 2016, dated 2017).
Read-outs that look alike come from different tables or passages of the source.

Legend:
[1] = in toluene, used as standard; cited from earlier work
[2] = in water, used as standard for phosphorescence quantum yields; cited from earlier work
[3] = system: human melanocytic melanoma cells (A375); assay: Photocytotoxicity (photodynamic treatment, MTT assay); assay type: cell-based; settings: 24 h incubation, irradiated 7.5 mW/cm^2 to 10 J, red filter (cut off < 560 nm)
Method: In an embodiment the photodynamic activity were as following: For each experiment, A375 cells were plated and kept in the incubator overnight, in order to allow the attachment of the cells. The initial formulation of the sensitizers consisted of a 1 mg/mL solution in DMSO and the desired concentrations were achieved by successive dilutions, being always administered to the cells at 1% DMSO. After sensitizer administration (from 1 nM to 10 µM), cells were incubated for 24 h. Controls were performed on every test. Cells were washed with PBS and new drug-free medium was added. Each plate was irradiated with a fluence rate of 7.5 mW/cm^2 until a total of 10 J was reached, using a light source equipped with a red filter (cut off < 560 nm).

A375 cells = settings: absence of light
Method: In an embodiment the cell culture conditions were as following: The A375 (CRL1619) human melanoma cell lines were purchased from American Type Culture Collection and cultured according to standard procedures using the Dulbecco's Modified Eagle medium (Sigma-Aldrich, Inc; Sigma D-5648) supplemented with 10% heat-inactivated fetal bovine serum (Gibco Invitrogen Life Technologies; Gibco 2010-04), 1% Penicillin-Streptomycin (Gibco Invitrogen Life Technologies; 100 U/mL penicillin and 10 µg/mL streptomycin - Gibco 15140-122) and 100 µM sodium pyruvate (Gibco Invitrogen Life Technologies; Gibco 1360) at 37 °C, in a humidified incubator with 95% air and 5% CO2. For all studies, cells were detached using a solution of 0.25% trypsin-EDTA (Gibco).
In an embodiment for the evaluation of photocytotoxicity a MTT assay was performed. Cell culture plates were washed and incubated with a solution of 3-(4,5-dimethylthiazol-2-yl)-2,5- diphenyltetrazolium bromide (0.5 mg/mL, Sigma) in PBS, pH 7.4, in the dark at 37 °C for 4 hours. To solubilize formazan crystals, a 0.04 M solution of hydrochloric acid in isopropanol was added. Absorbance was measured using a Biotek Synergy HT Plate Reader. Cytotoxicity was expressed as the inhibition percentage of cultures subjected to PDT, correlated with cultures only treated with the vehicle administration of sensitizers. […]

Compound	IC50 [3] [nM]	other results
C1=Cc2nc1c(-c1ccccc1)c1ccc([nH]1)c(-c1ccccc1)c1nc(c(-c3ccccc3)c3ccc([nH]3)c2-c2ccccc2)C=C1 [TPP, meso-tetraphenylporphyrin]	–	φF [1]: 0.11
[Ru+2].c1ccc(-c2ccccn2)nc1.c1ccc(-c2ccccn2)nc1.c1ccc(-c2ccccn2)nc1 [tris(2,2'-bipyridyl)ruthenium (II)]	–	φF [2]: 0.042
Photofrin@	156	–
platinum (II) 2,3-dihydroxymethyl-4,5,6,7-tetrahydropyrazolo[1,5-α]pyridine-fused chlorin [Chlorin 8]	144	IC50 (A375 cells): 22300 nM
platinum (II) dimethyl 4,5,6,7-tetrahydropyrazolo[1,5-α]pyridine-2,3-dicarboxylate-fused chlorin [Chlorin 7b]	> 5000	–
